melting point | SMILES
72 to 78 °C | Cl.O=C(CNCC(c1ccccc1)c1ccccc1)N1CCc2ccccc2C1
250 °C | Cl.O=C(CNCC(c1ccccc1)c1ccccc1)n1c2ccccc2c2ccccc21
181 to 182 °C | Cl.O=C(CNC(c1ccccc1)c1ccccc1)N(Cc1ccccc1)c1ccccc1
122 to 123 °C | O=C(CNC(c1ccccc1)c1ccccc1)N(c1ccccc1)c1ccccc1 [Example 15, 2-(Benzhydryl-amino)-N,N-diphenyl-acetamide]
190 to 192 °C | Cl.O=C(CNCc1ccccc1Cl)N(Cc1ccccc1)c1ccccc1
215 to 216 °C | Cl.O=C(NCc1cccc(Cl)c1)C(NC(c1ccccc1)c1ccccc1)c1ccccc1 (racemic)
107 to 108 °C | COc1cc(CNC(C(=O)NCc2ccccc2)c2ccccc2)cc(OC)c1 (racemic) [Example 112, rac-N-Benzyl-2-(3,5-dimethoxy-benzylamino)-2-phenyl-acetamide]
172 to 173 °C | CC(CN(C)C)N1c2ccccc2CCc2ccccc21.Cl (racemic)
258 to 260 °C | O=C(NC(C(=O)NCc1ccccc1)c1ccccc1)c1ccc2cc(C(=O)O)[nH]c2c1 (stereo not drawn) [Example 117, 6-[(Benzylcarbamoyl-phenyl-methyl)-carbamoyl]-1H-indole-2-carboxylic acid]
233 to 235 °C | CS(=O)(=O)O.CS(=O)(=O)O.Clc1ccc(C(NCCNC(c2ccccc2)c2ccc(Cl)cc2)c2ccccc2)cc1 (stereo not drawn)
243 to 259 °C | Cl.O=C(CNCCc1ccccc1)N1c2ccccc2C=Cc2ccccc21
153 to 155 °C | COc1ccc(CNC(C(=O)NCc2ccccc2)c2ccccc2)cc1.O=C(O)/C=C/C(=O)O (racemic)
132 to 134 °C | Cl.O=C(CNC(c1ccccc1)c1ccccc1)Nc1cccc2ccccc12
151 to 158 °C | Cl.O=C(CNC(c1ccccc1)c1ccccc1)Nc1ccccc1-c1ccccc1
215 to 216 °C | Cl.O=C(CNCC(c1ccccc1)c1ccccc1)N1c2ccccc2Oc2ccccc21
245 to 246 °C | Cl.O=C(CNC1CCCc2ccccc21)N1c2ccccc2C=Cc2ccccc21 (stereo not drawn)
115 to 116 °C | CN(C(=O)CNC(c1ccccc1)c1ccccc1)c1ccccc1 [Example 24, 2-(Benzhydryl-amino)-N-methyl-N-phenyl-acetamide]
274 to 295 °C | Cl.O=C(CNC1CCc2ccccc2C1)N(c1ccccc1)c1ccccc1 (stereo not drawn)
159 to 161 °C | CN(C)c1ccc(CNC(C(=O)NCc2ccccc2)c2ccccc2)cc1.O=C(O)/C=C/C(=O)O (racemic)
241 to 243 °C | CC(C)N(C(=O)CNC(c1ccccc1)c1ccccc1)c1ccccc1.Cl
122 to 125 °C | CC(NCC(c1ccccc1)c1ccccc1)C(=O)N(c1ccccc1)c1ccccc1.Cl (racemic)
234 to 237 °C | Cl.O=C(CNCc1ccccc1)N(c1ccccc1)c1ccccc1
221 to 223 °C | CN(C(=O)CNCC(c1ccccc1)c1ccccc1)c1ccccc1.Cl
245 to 250 °C | CC(C)N(C(=O)CNCc1ccc(Cl)c(Cl)c1)c1ccccc1.Cl
179 to 185 °C | Cl.N[C@@H](C(=O)NCC(=O)N1c2ccccc2C=Cc2ccccc21)c1ccccc1
232 to 236 °C | CC(NCC(=O)N(c1ccccc1)c1ccccc1)c1ccccc1.Cl (racemic)
174 to 178 °C | Cl.O=C(CNCC(c1ccccc1)c1ccccc1)N1CCCc2ccccc21

melting point | SMILES
188 to 190 °C | Cl.O=C(CNCC(c1ccccc1)c1ccccc1)N(Cc1ccccc1)c1ccccc1
244 to 249 °C | Cl.O=C(CNCc1ccc(Cl)c(Cl)c1)N1c2ccccc2C=Cc2ccccc21
227 to 230 °C | Cl.O=C(CNCCC(c1ccccc1)c1ccccc1)N(c1ccccc1)c1ccccc1
210 to 212 °C | CC(CNCC(=O)N1CCCc2ccccc21)(c1ccccc1)c1ccccc1.Cl
82 to 84 °C | O=C(CNC1c2ccccc2-c2ccccc21)N1CCCc2ccccc21 [Example 31, 1-(3,4-Dihydro-2H-quinolin-1-yl)-2-(9H-fluoren-9-ylamino)-ethanone]
201 to 203 °C | Cl.O=C(CN1CCc2ccccc2C1)N1CCCc2ccccc21
82 to 95 °C | Cc1cccc2c1N(C(=O)CNCC(c1ccccc1)c1ccccc1)CCC2.Cl
232 to 234 °C | Cl.O=C(CNCC(c1ccccc1)c1ccccc1)N(c1ccccc1)c1ccccc1
202 to 204 °C | O=C(CN1CCc2ccccc2C1)N(c1ccccc1)c1ccccc1 [Example 14, 2-(3,4-Dihydro-1H-isoquinolin-2-yl)-N,N-diphenyl-acetamide]
177.5 to 178.1 °C | Cl.O=C(CNC(c1ccccc1)c1ccccc1)NCCC(c1ccccc1)c1ccccc1
233 to 235 °C | Cl.O=C(CNCc1cccc2ccccc12)N(c1ccccc1)c1ccccc1
218.4 to 219.2 °C (dec.) | Cl.O=C(NCc1ccccc1)C(NC(c1ccccc1)c1ccccc1)c1ccccc1 (racemic)
161.9 to 162.9 °C | Cl.O=C(CNC(c1ccccc1)c1ccccc1)NCc1ccccc1
191 to 194 °C | Cl.O=C(CNC(c1ccccc1)c1ccccc1)N1CCCc2ccccc21
192 to 233 °C | Cl.N[C@H](C(=O)NCC(=O)N1c2ccccc2C=Cc2ccccc21)c1ccccc1
212 to 215 °C | CC1CCc2ccccc2N1C(=O)CNCC(c1ccccc1)c1ccccc1.Cl (racemic)
213 to 214.5 °C | Cl.O=C(CNCc1ccccc1Cl)N(c1ccccc1)c1ccccc1
177 to 185 °C (dec.) | Cl.NC(C(=O)NCC(=O)N(c1ccccc1)c1ccccc1)c1ccccc1 (stereo not drawn)
240 to 243 °C | CC(C)N(C(=O)CNCC(c1ccccc1)c1ccccc1)c1ccccc1.Cl
68 to 70 °C | O=C(NCC(c1ccccc1)c1ccccc1)C(Cc1ccccc1)NCc1ccccn1 (racemic) [Example 136, rac-N-(2,2-Diphenyl-ethyl)-3-phenyl-2-[(pyridin-2-ylmethyl)-amino]-propion-amide]
128 to 136 °C | Cc1cccc2c1N(C(=O)CNC(c1ccccc1)c1ccccc1)CCC2.Cl
109 to 119.5 °C | O=C(NCc1ccccc1)C(c1ccccc1)N(Cc1ccccc1)Cc1ccccc1 (racemic) [Example 106, rac-N-Benzyl-2-dibenzylamino-2-phenyl-acetamide]
208 to 210 °C | CC(NC1Cc2ccccc2C1)C(=O)N(c1ccccc1)c1ccccc1.Cl (racemic)
221 to 224 °C | CN(C(=O)CNCc1ccc(Cl)c(Cl)c1)c1ccccc1.Cl
224 to 226 °C | CC(C)N(C(=O)CNCc1cccc2ccccc12)c1ccccc1.Cl
98 to 99 °C | O=C(CNCc1ccccc1Cl)NC(c1ccccc1)c1ccccc1 [Example 5, N-Benzhydryl-2-(2-chloro-benzylamino)-acetamide]
210.3 to 212 °C | CC(NC(c1ccccc1)c1ccccc1)C(=O)NCCC(c1ccccc1)c1ccccc1.Cl (racemic)

Reference: patent US20080242698A1, “Organic Compounds” (priority 2005, published 2008)
